Experimental data as given in patent US20120142730A1 (priority 2010, published 2012).

System: subjects with relapsing remitting multiple sclerosis (RRMS)
Assay: ALLEGRO phase III trial: patient-reported fatigue (MFIS), SF-36 and EQ5D
Assay type: in vivo, human
Experimental: Eligible subjects were equally randomized 1:1 into one of the following treatment arms: • 1. […] 21, 2007 (see, page 10, line 5 to page 11, line 3). • 2. Matching placebo for laquinimod arm: one capsule is administered once daily. The following assessments were performed at specified time points: • 1. Vital signs were measured at each study visit. • 2. A physical examination is performed at months −1 (screening), (baseline) 1, 3, 6, 12, 18 and 24 (termination/early discontinuation core study). In case of the 6 months extended study, additional examination was performed at month 30 (termination/early discontinuation of extended study). • 3. The following safety clinical laboratory tests were performed: • a. Complete blood count (CBC) with differential—at all scheduled visits. A reticulocyte count was added to the CBC at months 0 (baseline) and 24/30 (termination/early discontinuation). • b. Serum chemistry (including electrolytes, liver enzymes, direct and total bilirubin and pancreatic amylase and CPK), and urinalysis—at all scheduled visits. • c. A rapid urine β-hCG test was performed in women of child-bearing potential at baseline (month 0) and at each scheduled study visit thereafter (at site). • d. β-hCG in women of child-bearing potential was performed at all scheduled visits. • e. Starting after visit Month 3 a rapid urine β-hCG test was performed in women of child-bearing potential every 28 (±2) days. The subject was contacted by telephone within 72 hours after the test was scheduled to be performed and asked specific questions regarding the test. In case of suspected pregnancy (positive urine β-hCG test result), the caller made sure that the study drug has been discontinued and the subject was instructed to arrive at the site as soon as possible with all study drugs. • 4. Markers of inflammation (serum conventional C-reactive protein and fibrinogen)—at screening, baseline and all scheduled visits thereafter. • 5. During the first 3 months periodical phone calls were placed by the site personnel every two weeks. […] ECG was performed at months −1 (screening; additional recording, up to 30 minutes apart is performed if QTc is […] 450 msec), (baseline; three recordings, 15 minutes apart), 1, 2, 3, 6, 12, 18 and 24 (termination/early discontinuation). In case of the 6 months extended study, ECG is performed at month 30 (termination/early discontinuation of the extended study). • 7. Chest X-ray is performed at months −1 (screening), (if not performed within 7 months prior to the screening visit). • 8. Adverse Events (AEs) are monitored throughout the study. • 9. Concomitant medications are monitored throughout the study. • 10. Neurological evaluations, including Expanded Disability Status Scale (EDSS), 25 foot walk test/Ambulation Index (AI), Functional systems (FS) are performed at months −1 (screening), (baseline) and every 3 months during the study and the extended study period. • 11. MS functional Composite (MSFC) was assessed at months −1 (screening) (three practices for training purposes only), at month 0 (baseline), 6, 12, 18 and 24 (termination/early discontinuation). In case of the 6 months extended study, the last MSFC was performed at months 30 (termination/early discontinuation of the extended study). • 12. Subject-reported fatigue was assessed by the Modified Fatigue Impact Scale (MFIS) at months 0, 6, 12, 18, and 24 (termination/early discontinuation). In case of the 6 months extended study, additional MFIS was performed at month 30 (termination/early discontinuation of the extended study). • 13. The general health status was assessed by the EuroQoL (EQ5D) questionnaire at month 0 (baseline) and month 24 (termination/early discontinuation of the study). In case of the 6 months extended study, the last EuroQoL (EQ5D) was performed at month 30 (termination/early discontinuation of the extended study) instead of month 24. • 14. […]

[1] = 0.6 mg daily oral, listed as laquinimod

SMILES: CCN(C(=O)c1c(O)c2c(Cl)cccc2n(C)c1=O)c1ccccc1 [Laquinimod, laquinimod]
- EQ-5D dimensions, health status at Month 24, words (0.6 mg daily oral): 0.6 mg maintained their health status at Month 24 while those treated with placebo reported a
- MFIS (Modified Fatigue Impact Scale) adjusted mean score at 24 months (0.6 mg daily oral): 31.9
- SF36 Mental component summary, treatment effect (0.6 mg daily oral vs placebo): 1.848
- MFIS treatment effect (0.6 mg daily oral vs placebo, month 24, p=0.004): −2.53
- EQ5D, effect (0.6 mg daily oral vs placebo, p 0.0267): −2.366
- SF36 Physical component summary, effect (0.6 mg daily oral vs placebo, p 0.1354): 0.65
- SF36 Mental component summary, treatment effect (0.6 mg daily oral vs placebo, listed as laquinimod): 1.68
- EQ5D General Health Status by the Euroqol Questionnaire (0.6 mg daily oral, month 24): 71.0
- SF36 - SFMHD Mental component summary (0.6 mg daily oral, month 24): −0.47
- SF36 - SFPHD Physical component summary (0.6 mg daily oral, month 24): −0.519
- MFIS (Modified Fatigue Impact Scale) adjusted mean score at 24 months [1]: 31.9 (0.71)
- SF-36 PCS score over 24 months, words [1]: The PCS score at Month 24 for those treated with laquinimod 0.6 mg remained stable while the
- Functional disability due to fatigue (MFIS), words (0.6 mg vs placebo at Month 24): average, associated with less functional disability due to fatigue than placebo at Month 24
- Change in adjusted mean MFIS psychosocial subscale score from baseline (at 12 months, p=0.02): significant improvement
- Change in adjusted mean MFIS physical subscale score from baseline (at 24 months, p=0.02): significant improvement
- Change in adjusted mean MFIS cognitive subscale score from baseline (at 24 months, p=0.05): significant improvement
- SF-36 PCS subscale role physical (over 24 months vs placebo, p=0.010): showed improvement
- SF-36 PCS subscale physical functioning (over 24 months vs placebo, p=0.016): showed improvement
- SF-36 PCS difference from placebo, words (over 24 months, p=0.13): did not reach statistical significance
- EQ-5D Anxiety or Depression, effect (vs placebo, Month 24, p 0.0113): 1.425
- EQ-5D Mobility, effect (vs placebo, Month 24, p 0.0181): 1.497
- EQ-5D Self care, effect (vs placebo, Month 24, p 0.0337): 2.251
- EQ-5D Usual activities, effect (vs placebo, Month 24, p 0.4051): 1.129
- EQ-5D Pain discomfort, effect (vs placebo, Month 24, p 0.8024): 1.036
